Results published in patent US10183938B2, “Geminal substituted quinuclidine amide compounds as agonists of α-7 nicotonic acetylcholine receptors” (AXOVANT SCIENCES GMBH, priority 2014, dated 2019).
Structures can show the parent of a compound that is named as a salt. Where two headings read alike, the source gives them in different places.

Experiments:
[1] = molecular target: human 5-HT3 serotonin receptors (Homo sapiens (Human), UniProt P46098); test: [3H]BRL 43694 competition binding
[2] = molecular target: human α7 nAChRs transiently expressed in Xenopus laevis oocytes (Homo sapiens (Human), UniProt P36544); test: Oocyte electrophysiology screen (TEVC); format: cell-based; settings: 0.01 mM test compound, peak current relative to 0.2 mM ACh
Summary of the method: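 Oocytes expressing human α7 were clamped at −80 mV by TEVC. After a 0.2 mM ACh control pulse, test compound was applied at 0.01 mM for 30 s. Agonist response is peak current as % of the ACh response, in triplicate.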

[3] = CHO cell membranes, [3H]BRL 43694, Cheng Prusoff, read-out: h-5HT3 Ki

Sequence of human α7 nAChRs transiently expressed in Xenopus laevis oocytes (P36544 23-502 limits assumed): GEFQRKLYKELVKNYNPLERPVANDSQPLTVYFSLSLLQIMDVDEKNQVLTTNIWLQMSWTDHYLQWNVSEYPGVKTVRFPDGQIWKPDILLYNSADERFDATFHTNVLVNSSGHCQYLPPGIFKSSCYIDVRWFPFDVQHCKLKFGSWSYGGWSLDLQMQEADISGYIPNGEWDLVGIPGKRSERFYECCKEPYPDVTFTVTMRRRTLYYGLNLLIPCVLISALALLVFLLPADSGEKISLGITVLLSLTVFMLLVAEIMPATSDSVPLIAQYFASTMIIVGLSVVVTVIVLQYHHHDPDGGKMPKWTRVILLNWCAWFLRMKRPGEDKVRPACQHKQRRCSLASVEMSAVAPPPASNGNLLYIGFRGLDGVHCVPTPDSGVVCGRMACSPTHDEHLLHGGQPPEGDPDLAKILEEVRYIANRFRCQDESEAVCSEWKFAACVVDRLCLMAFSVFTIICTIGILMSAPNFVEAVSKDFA
Sequence of human 5-HT3 serotonin receptors (P46098 24-478): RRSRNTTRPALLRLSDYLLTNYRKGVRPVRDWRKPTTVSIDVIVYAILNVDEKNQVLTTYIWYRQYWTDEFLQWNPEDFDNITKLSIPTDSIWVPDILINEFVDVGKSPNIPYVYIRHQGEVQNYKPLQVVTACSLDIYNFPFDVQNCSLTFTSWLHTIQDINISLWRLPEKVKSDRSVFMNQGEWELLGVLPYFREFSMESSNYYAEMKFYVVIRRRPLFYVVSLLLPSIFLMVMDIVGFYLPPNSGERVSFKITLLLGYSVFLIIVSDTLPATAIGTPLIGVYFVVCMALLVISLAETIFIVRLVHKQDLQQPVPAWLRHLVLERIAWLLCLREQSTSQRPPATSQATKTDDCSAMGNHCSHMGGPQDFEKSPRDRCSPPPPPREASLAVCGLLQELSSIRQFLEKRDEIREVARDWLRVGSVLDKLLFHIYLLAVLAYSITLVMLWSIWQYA

Structure (SMILES) | Ki [1] [nM] | % ACh @ 10 μM Oocyte [2] [% ACh] | Ki [1, 3] [nM]
O=C(NC1C2CCN(CC2)C12CC2)c1cc2cc(F)ccc2s1 (single isomer, unassigned; enantiomer1) [64a, 5-fluoro-N-(1′-azaspiro[cyclopropane-1,2′-bicyclo[2.2.2]octan]-3′-yl)benzo[b]thiophene-2-carboxamide-enantiomer1] | 420 | 511 | –
Cn1cnc2cc(C(=O)N[C@@H]3C4CCN(CC4)C34CC4)ccc21 [(R)-95, (R)-1-methyl-N-(1′-azaspiro[cyclopropane-1,2′-bicyclo[2.2.2]octan]-3′-yl)-1H-benzo[d]imidazole-5-carboxamide hydrochloride] | – | 0 | > 10000
O=C(N[C@@H]1C2CCN(CC2)C12CC2)c1cc2ccc(Cl)c(F)c2s1 [(R)-151, (R)-6-chloro-7-fluoro-N-(1′-azaspiro[cyclopropane-1,2′-bicyclo[2.2.2]octan]-3′-yl)benzo[b]thiophene-2-carboxamide hydrochloride] | – | 409 | > 10000
O=C(NC1C2CCN(CC2)C12CC2)c1cc2ccc(F)cc2s1 (single isomer, unassigned; enantiomer1) [61a, 6-fluoro-N-(1′-azaspiro[cyclopropane-1,2′-bicyclo[2.2.2]octan]-3′-yl)benzo[b]thiophene-2-carboxamide-enantiomer1] | – | 1493 | 1500
O=C(N[C@@H]1C2CCN(CC2)C12CC2)c1ccc2ccoc2c1 [(R)-84, (R)—N-(1′-azaspiro[cyclopropane-1,2′-bicyclo[2.2.2]octan]-3′-yl)benzofuran-6-carboxamide hydrochloride] | – | 341 | 4700
CC1(C)[C@H](NC(=O)c2cc3cc(F)ccc3s2)C2CCN1CC2 [(R)-11, (R)—N-(2,2-dimethylquinuclidin-3-yl)-5-fluorobenzo[b]thiophene-2-carboxamide hydrochloride] | – | 552 | 1700
CC1(C)[C@H](NC(=O)c2cc3cccnc3s2)C2CCN1CC2 [(R)-28, (R)—N-(2,2-dimethylquinuclidin-3-yl)thieno[2,3-b]pyridine-2-carboxamide hydrochloride] | – | 321 | > 10000
Cc1ccc2sc(C(=O)N[C@@H]3C4CCN(CC4)C3(C)C)cc2c1 [(R)-16, (R)—N-(2,2-dimethylquinuclidin-3-yl)-5-methylbenzo[b]thiophene-2-carboxamide hydrochloride] | – | 74 | 2500
Cc1ccc2cc(C(=O)N[C@@H]3C4CCN(CC4)C3(C)C)sc2c1 [(R)-15, (R)—N-(2,2-dimethylquinuclidin-3-yl)-6-methylbenzo[b]thiophene-2-carboxamide hydrochloride] | – | 539 | > 10000
O=C(N[C@@H]1C2CCN(CC2)C12CC2)c1ccc2cc[nH]c2c1 [(R)-79, (R)—N-(1′-azaspiro[cyclopropane-1,2′-bicyclo[2.2.2]octan]-3′-yl)-1H-indole-6-carboxamide] | – | 758 | 750
O=C(N[C@@H]1C2CCN(CC2)C12CC2)c1ccc2oc(Cl)cc2c1 [(R)-92, (R)-2-chloro-N-(1′-azaspiro[cyclopropane-1,2′-bicyclo[2.2.2]octan]-3′-yl)benzofuran-5-carboxamide hydrochloride] | – | 532 | > 10000
COc1cccc2cc(C(=O)N[C@@H]3C4CCN(CC4)C34CC4)sc12 [(R)-161, (R)-7-methoxy-N-(1′-azaspiro[cyclopropane-1,2′-bicyclo[2.2.2]octan]-3′-yl)benzo[b]thiophene-2-carboxamide hydrochloride] | – | 493 | 660
O=C(NC1C2CCN(CC2)C12CC2)c1cc2cccc(C(F)(F)F)c2s1 (single isomer, unassigned; enantiomer1) [60a, N-(1′-azaspiro[cyclopropane-1,2′-bicyclo[2.2.2]octan]-3′-yl)-7-(trifluoromethyl)benzo[b]thiophene-2-carboxamide-enantiomer1] | – | 501 | 1010
Cc1nc2ccc(C(=O)N[C@@H]3C4CCN(CC4)C34CC4)cc2o1 [(R)-86, (R)-2-methyl-N-(1′-azaspiro[cyclopropane-1,2′-bicyclo[2.2.2]octan]-3′-yl)benzo[d]oxazole-6-carboxamide] | – | 67 | > 10000
CC1(C)[C@H](NC(=O)c2cc3c(cn2)OCCO3)C2CCN1CC2 [(R)-23, (R)—N-(2,2-dimethylquinuclidin-3-yl)-2,3-dihydro-[1,4]dioxino[2,3-c]pyridine-7-carboxamide hydrochloride] | – | 82 | > 10000
CC1(C)[C@H](NC(=O)c2cc3ccc(C(F)(F)F)cc3s2)C2CCN1CC2 [(R)-10, (R)—N-(2,2-dimethylquinuclidin-3-yl)-6-(trifluoromethyl)benzo[b]thiophene-2-carboxamide hydrochloride] | – | 1 | > 10000

Structure (SMILES) | Ki [1] [nM] | % ACh @ 10 μM Oocyte [2] [% ACh] | Ki [1, 3] [nM]
Cc1cc2cc(C(=O)N[C@@H]3C4CCN(CC4)C34CC4)ccc2o1 [(R)-91, (R)-2-methyl-N-(1′-azaspiro[cyclopropane-1,2′-bicyclo[2.2.2]octan]-3′-yl)benzofuran-5-carboxamide hydrochloride] | – | 653 | > 10000
O=C(N[C@@H]1C2CCN(CC2)C12CC2)c1cc2ccc(C3CCOCC3)cc2s1 [(R)-105, (R)—N-(1′-azaspiro[cyclopropane-1,2′-bicyclo[2.2.2]octan]-3′-yl)-6-(tetrahydro-2H-pyran-4-yl)benzo[b]thiophene-2-carboxamide hydrochloride] | – | 2 | > 10000
Cc1ccc2cc(C(=O)N[C@@H]3C4CCN(CC4)C34CC4)sc2c1Cl [(R)-156, (R)-7-chloro-6-methyl-N-(1′-azaspiro[cyclopropane-1,2′-bicyclo[2.2.2]octan]-3′-yl)benzo[b]thiophene-2-carboxamide hydrochloride] | – | 403 | 300
CC1(C)[C@H](NC(=O)c2cc3cc(Cl)c(Cl)cc3s2)C2CCN1CC2 [(R)-14, (R)-5,6-dichloro-N-(2,2-dimethylquinuclidin-3-yl)benzo[b]thiophene-2-carboxamide hydrochloride] | – | 3 | > 10000
Cc1ccc2cc(C(=O)N[C@@H]3C4CCN(CC4)C34CC4)sc2c1C#N [(R)-198, (R)-7-cyano-6-methyl-N-(1′-azaspiro[cyclopropane-1,2′-bicyclo[2.2.2]octan]-3′-yl)benzo[b]thiophene-2-carboxamide hydrochloride] | – | – | > 10000
COCc1cccc2cc(C(=O)N[C@@H]3C4CCN(CC4)C34CC4)sc12 [(R)-199, (R)-7-(methoxymethyl)-N-(1′-azaspiro[cyclopropane-1,2′-bicyclo[2.2.2]octan]-3′-yl)benzo[b]thiophene-2-carboxamide hydrochloride] | – | – | 580
CC1(c2cccc3cc(C(=O)N[C@@H]4C5CCN(CC5)C4(C)C)sc23)CC1 [(R)-133, (R)—N-(2,2-dimethylquinuclidin-3-yl)-7-(1-methylcyclopropyl)benzo[b]thiophene-2-carboxamide hydrochloride] | – | – | 400
Cc1cccc2cc(C(=O)N[C@@H]3C4CCN(CC4)C3(C)C)sc12 [(R)-126, (R)—N-(2,2-dimethylquinuclidin-3-yl)-7-methylbenzo[b]thiophene-2-carboxamide hydrochloride] | – | – | 170
O=C(N[C@@H]1C2CCN(CC2)C12CC2)c1cc2ccc3c(c2s1)CCCO3 [(R)-204, (R)—N-(1′-azaspiro[cyclopropane-1,2′-bicyclo[2.2.2]octan]-3′-yl)-8,9-dihydro-7H-thieno[2,3-f]chromene-2-carboxamide hydrochloride] | – | – | > 10000
CC1(C)[C@H](NC(=O)c2cc3ccc(Cl)c(C(F)(F)F)c3s2)C2CCN1CC2 [(R)-111, (R)-6-chloro-N-(2,2-dimethylquinuclidin-3-yl)-7-(trifluoromethyl)benzo[b]thiophene-2-carboxamide hydrochloride] | – | – | > 10000
O=C(N[C@@H]1C2CCN(CC2)C12CC2)c1cc2cccc(C3CC3)c2s1 [(R)-165, (R)-7-cyclopropyl-N-(1′-azaspiro[cyclopropane-1,2′-bicyclo[2.2.2]octan]-3′-yl)benzo[b]thiophene-2-carboxamide hydrochloride] | – | – | 200
CN(C)c1cccc2cc(C(=O)N[C@@H]3C4CCN(CC4)C34CC4)sc12 [(R)-178, (R)-7-(dimethylamino)-N-(1′-azaspiro[cyclopropane-1,2′-bicyclo[2.2.2]octan]-3′-yl)benzo[b]thiophene-2-carboxamide hydrochloride] | – | – | 400
COc1ccc2cc(C(=O)N[C@@H]3C4CCN(CC4)C34CC4)sc2c1Cl [(R)-154, (R)-7-chloro-6-methoxy-N-(1′-azaspiro[cyclopropane-1,2′-bicyclo[2.2.2]octan]-3′-yl)benzo[b]thiophene-2-carboxamide hydrochloride] | – | – | 6200
O=C(N[C@@H]1C2CCN(CC2)C12CC2)c1n[nH]c2ccccc12 [(R)-194, (R)—N-(1′-azaspiro[cyclopropane-1,2′-bicyclo[2.2.2]octan]-3′-yl)-1H-indazole-3-carboxamide hydrochloride] | – | – | 79
CCOc1ccc2cc(C(=O)N[C@@H]3C4CCN(CC4)C34CC4)sc2c1 [(R)-189, (R)-6-ethoxy-N-(1′-azaspiro[cyclopropane-1,2′-bicyclo[2.2.2]octan]-3′-yl)benzo[b]thiophene-2-carboxamide hydrochloride] | – | – | > 10000
Cc1c(Cl)ccc2cc(C(=O)N[C@@H]3C4CCN(CC4)C34CC4)sc12 [(R)-205, (R)-6-chloro-7-methyl-N-(1′-azaspiro[cyclopropane-1,2′-bicyclo[2.2.2]octan]-3′-yl)benzo[b]thiophene-2-carboxamide hydrochloride] | – | – | 2600
